Laboratory results: PubChem BioAssay (NCI)
Where “and” joins values, the source holds several entries; their conditions need not be identical. Equal entries are not always repeated.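 Tested at 5 concentrations; 48 h exposure; 96-well plates; endpoints linearly interpolated, else capped at highest concentration. GI50: concentration for 50% inhibition of growth. TGI: concentration producing complete growth inhibition.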

Tests used:
Experiment in all cases: NCI-60 cell line screen, 48 h
CAKI-1 renal = tested on: CAKI-1 renal
OVCAR-3 ovarian = tested on: OVCAR-3 ovarian
HS 578T breast = tested on: HS 578T breast
HOP-62 NSCLC = tested on: HOP-62 NSCLC
RPMI-8226 leukemia = tested on: RPMI-8226 leukemia
SW-620 colon = tested on: SW-620 colon
NCI-H460 lung = tested on: NCI-H460 lung
TK-10 renal = tested on: TK-10 renal
EKVX NSCLC = tested on: EKVX NSCLC
SNB-75 CNS = tested on: SNB-75 CNS

| Structure (SMILES) | GI50 (CAKI-1 renal) | TGI (CAKI-1 renal) | GI50 (OVCAR-3 ovarian) | GI50 (HS 578T breast) | TGI (HOP-62 NSCLC) | GI50 (RPMI-8226 leukemia) | TGI (RPMI-8226 leukemia) | GI50 (SW-620 colon) | TGI (SW-620 colon) | GI50 (NCI-H460 lung) | TGI (NCI-H460 lung) | GI50 (TK-10 renal) | TGI (TK-10 renal) | TGI (EKVX NSCLC) | GI50 (SNB-75 CNS) | TGI (SNB-75 CNS) | TGI (OVCAR-3 ovarian) | TGI (HS 578T breast) | GI50 (HOP-62 NSCLC) | GI50 (EKVX NSCLC) |
| --- | --- | --- | --- | --- | --- | --- | --- | --- | --- | --- | --- | --- | --- | --- | --- | --- | --- | --- | --- | --- |
| CC(=O)O[C@H]1C(=O)[C@@]2(C)[C@H]([C@H](OC(=O)c3ccccc3)[C@]3([O-])C[C@H](OC(=O)[C@H]([O-])[C@@H](NC(=O)c4ccccc4)c4ccccc4)C(C)=C1C3(C)C)[C@]1(OC(C)=O)CO[C@@H]1C[C@@H]2[O-].[Fe+3] | 2.41 µM and 3.53 µM | 54.5 µM and > 100 µM | 0.0215 µM and 0.0434 µM | 0.0562 µM and 0.141 µM | 10.5 µM and 48.8 µM | 0.0294 µM and 0.074 µM | 65 µM and > 100 µM | 0.0352 µM and 0.0664 µM | 19.2 µM and 47.4 µM | 0.0266 µM and 0.0498 µM | 65 µM and 25.5 µM | 0.591 µM and 0.658 µM | 65 µM and > 100 µM | 65 µM and > 100 µM | 0.0222 µM and 0.023 µM | 0.274 µM and 0.505 µM | – | – | – | – |
| C=CC(=O)Nc1cccc(Nc2nc(Nc3ccc(OCCOC)cc3)ncc2F)c1 | 0.511 µM | 2.46 µM | 2.47 µM | 1.17 µM | 20.7 µM | 3.28 µM | 23.3 µM | 2.14 µM | 22.3 µM | 2.28 µM | 14.5 µM | 0.99 µM | 3.86 µM | 15.6 µM | 0.341 µM | 2.44 µM | 16.1 µM | 6.97 µM | 2.42 µM | 3.16 µM |
| O=C(N/N=C/c1ccc(Cl)cc1Cl)c1ccccc1Nc1cccc(C(F)(F)F)c1 | 3.45 µM | 14.4 µM | 2.85 µM | 4.1 µM | 18.3 µM | 2.87 µM | 46.3 µM | 8.63 µM | > 100 µM | 6.98 µM | > 100 µM | 2.84 µM | 9.22 µM | 80.1 µM | 2.55 µM | 9.71 µM | 8.03 µM | 44.5 µM | 5.36 µM | 12.2 µM |
| CC(=O)[CH-]C(C)=O.CC(=O)[CH-]C(C)=O.N=CC=N.[Sn+2] | 2.54 µM | 7.23 µM | 2.86 µM | 2.66 µM | 33.9 µM | 1.48 µM | 4.38 µM | 1.71 µM | 3.11 µM | 3.9 µM | 10.8 µM | 4.48 µM | 10.7 µM | 19.4 µM | 3.7 µM | 13.7 µM | 9.13 µM | 10.5 µM | 19.3 µM | 6.42 µM |
| COc1ccc2c(c1)C=CC(C#N)N2C(=O)c1ccccc1 (stereo not given) | < 0.01 µM | > 100 µM | < 0.01 µM | < 0.01 µM | > 100 µM | < 0.01 µM | > 100 µM | < 0.01 µM | > 100 µM | < 0.01 µM | 36.7 µM | 33.7 µM | > 100 µM | > 100 µM | < 0.01 µM | > 100 µM | – | > 100 µM | < 0.01 µM | < 0.01 µM |
| COc1cc(-c2cn(C)c(=O)c(C)c2C)cc(OC)c1CN1CC[C@H](N2CCN(c3ccc(N[C@H]4CCC(=O)NC4=O)cc3F)CC2)C(F)(F)C1 | 6.87 µM | 33.4 µM | 13.4 µM | 4 µM | 39.2 µM | 6.43 µM | > 100 µM | 17.9 µM | 38 µM | 15.5 µM | 32.4 µM | 12 µM | 28.8 µM | 34.9 µM | 5.2 µM | 21.9 µM | 27.2 µM | 38.5 µM | 14 µM | 12.7 µM |
| CC(=O)n1c(-c2ccc(Cl)cc2)nc2c(c1=O)C(c1ccc(Cl)cc1)c1sc3c(Cl)cccc3c1O2 (stereo not given) | 0.488 µM | 3.03 µM | 0.402 µM | 0.396 µM | 1.76 µM | 0.504 µM | 4.75 µM | 0.388 µM | 1.68 µM | 0.365 µM | 1.39 µM | 0.987 µM | 2.62 µM | 3.71 µM | 0.454 µM | 5.88 µM | 1.5 µM | 3.23 µM | 0.374 µM | 0.926 µM |
| CCn1c(-c2nonc2N)nc2ccc(F)cc21 | > 25 µM | > 25 µM | > 25 µM | > 25 µM | > 25 µM | > 25 µM | > 25 µM | > 25 µM | > 25 µM | > 25 µM | > 25 µM | > 25 µM | > 25 µM | > 25 µM | > 25 µM | > 25 µM | > 25 µM | > 25 µM | > 25 µM | > 22.2 µM |
| CCCNCc1cc(C)cc2c1nc(N1CCNCC1)n2Cc1cc(C)c(F)c(C)c1 | 14.4 µM | 27.6 µM | 3.71 µM | 2.56 µM | 32.2 µM | 2.09 µM | 5.29 µM | 1.96 µM | 4.34 µM | 1.93 µM | 4.03 µM | 14.3 µM | 28 µM | 22.6 µM | 12.1 µM | 26.4 µM | 13.5 µM | 11.6 µM | 17 µM | 9.56 µM |
| O=C(Nc1cc(-c2ccccc2)[nH]n1)c1ccc(Cl)cc1 | 2.66 µM | > 100 µM | > 100 µM | 3.96 µM | > 100 µM | > 100 µM | > 100 µM | – | – | 3.58 µM | > 100 µM | 9.22 µM | > 100 µM | > 100 µM | 17.7 µM | 90.3 µM | > 100 µM | 65.9 µM | 20.7 µM | > 100 µM |
| O=P(O)(O)C(O)(Cn1ccnc1)P(=O)(O)O | > 52.9 µM | > 100 µM | > 66.1 µM | 4.67 µM | > 100 µM | 15.6 µM | > 100 µM | > 100 µM | > 100 µM | > 100 µM | > 100 µM | > 36.2 µM | > 100 µM | > 100 µM | > 37.4 µM | > 100 µM | > 100 µM | > 45.5 µM | > 55 µM | > 87.9 µM |
| C=C(C)[C@@H]1CC[C@@]2(C(=O)O)CC[C@]3(C)C(CCC4[C@@]5(C)CCC(OS(=O)(=O)c6ccccc6)C(C)(C)C5CC[C@]43C)C12 (stereo not given in full) | 2.36 µM | 9.89 µM | 3.95 µM | 8 µM | 18.5 µM | 1.69 µM | > 100 µM | 3.89 µM | 15.2 µM | 3.36 µM | 15.5 µM | 3.84 µM | 25.4 µM | 19.3 µM | 11.5 µM | 30.5 µM | 14.9 µM | 42.4 µM | 5.15 µM | 2.58 µM |
| Nc1ccc(SC23CC4CC(CC(C4)C2)C3)cc1 | – | > 100 µM | – | – | > 100 µM | – | > 100 µM | – | > 100 µM | – | > 100 µM | – | > 100 µM | > 100 µM | – | – | > 100 µM | > 100 µM | – | – |
| O=C1c2ccccc2-c2c1c1ccccc1c(=O)n2CCNCCCNCCn1c2c(c3ccccc3c1=O)C(=O)c1ccccc1-2 | 0.563 µM | 1.24 µM | 0.362 µM | 0.738 µM | 1.16 µM | 0.00933 µM | 0.259 µM | < 0.005 µM | 0.58 µM | < 0.005 µM | > 50 µM | – | – | 3.07 µM | – | – | 1.12 µM | 2.74 µM | 0.0723 µM | 1.07 µM |
| COc1ccc2c(c1)[C@@]13CCN4CC5=CCO[C@H]6CC(=O)N2[C@H]1[C@H]6[C@H]5C[C@H]43 | – | > 100 µM | – | – | > 100 µM | – | > 100 µM | – | > 100 µM | – | > 100 µM | – | > 100 µM | > 100 µM | – | – | > 100 µM | > 100 µM | – | – |
| Oc1c(Br)cc(CN(Cc2cc(Br)c(O)c(Br)c2)C2CCCCC2)cc1Br | – | > 100 µM | – | – | > 100 µM | – | > 100 µM | – | > 100 µM | – | – | – | > 100 µM | > 100 µM | – | > 100 µM | > 100 µM | > 100 µM | – | – |
| Cc1ccc(C(=O)CC(Sc2cccc(Cl)c2Cl)c2ccc(Cl)cc2)cc1C (stereo not given) | 21.6 µM | 45.8 µM | 15.4 µM | 27.9 µM | 60.6 µM | 5.76 µM | 48.2 µM | 17.8 µM | 36 µM | 19.1 µM | 42.1 µM | 17.2 µM | 35 µM | 42.1 µM | – | – | 31.1 µM | 75.2 µM | 24.2 µM | 21.6 µM |
| C=C1C(=O)O[C@H]2[C@H]1CC/C(COC(=O)c1cc3cc(OC)ccc3[nH]1)=C\CC[C@@]1(C)O[C@@H]21 | 1.71 µM | 3.48 µM | 0.935 µM | 3.09 µM | 3.29 µM | 0.509 µM | 3.87 µM | 0.647 µM | 2.34 µM | 1.83 µM | 3.84 µM | 1.28 µM | 2.54 µM | 3.1 µM | – | – | 2.15 µM | 11.8 µM | 1.64 µM | 1.5 µM |
| NC(N)=N/N=C/c1c(-c2ccccn2)nc2sc(Cl)cn12 | 8.59 µM | 15.6 µM | 7.55 µM | 8.91 µM | 17.5 µM | 11.5 µM | 29 µM | 5.29 µM | 11.8 µM | 10.2 µM | 50 µM | 8.13 µM | 15.1 µM | 16.1 µM | – | – | 14.3 µM | 17.3 µM | 9.58 µM | 8.95 µM |
